Series [1] addresses T1, TAPL (Homo sapiens, UniProt Q9NP78).
T1 construct: Human coreTAPL (Q9NP78 UniProt, amino acid 143–766) fused C-terminally to mVenus; made in house; host or cells: Pichia pastoris SMD1168-His+
T1 sequence (Q9NP78 143-766): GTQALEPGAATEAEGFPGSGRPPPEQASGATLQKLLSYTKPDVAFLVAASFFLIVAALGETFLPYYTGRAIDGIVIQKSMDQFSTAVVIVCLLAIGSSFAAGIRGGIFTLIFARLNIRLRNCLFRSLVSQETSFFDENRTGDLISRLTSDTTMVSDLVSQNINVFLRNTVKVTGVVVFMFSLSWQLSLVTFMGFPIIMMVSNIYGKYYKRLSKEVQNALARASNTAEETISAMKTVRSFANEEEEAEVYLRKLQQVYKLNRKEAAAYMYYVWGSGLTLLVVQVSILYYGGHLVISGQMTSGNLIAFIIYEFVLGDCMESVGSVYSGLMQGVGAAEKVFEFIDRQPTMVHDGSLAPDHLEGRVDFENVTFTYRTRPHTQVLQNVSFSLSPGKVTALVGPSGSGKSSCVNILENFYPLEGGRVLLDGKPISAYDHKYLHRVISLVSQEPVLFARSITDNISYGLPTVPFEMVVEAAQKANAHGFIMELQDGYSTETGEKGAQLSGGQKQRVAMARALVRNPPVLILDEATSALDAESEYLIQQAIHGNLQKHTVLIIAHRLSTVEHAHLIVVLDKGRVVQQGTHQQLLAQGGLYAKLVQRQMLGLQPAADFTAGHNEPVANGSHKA
The series is described as follows: NTP dependent peptide transport by TAPL. Format: biochemical. The settings on record: 37 °C. Here is the method: Subsequently, we performed Michaelis-Menten kinetics of 9-mer peptide (100 µM) transport using increasing ATP and GTP concentrations. […] Additionally, we quantified the nucleotide hydrolysis kinetics of ATP and GTP in the presence and absence of the 9-mer peptide. […] Moreover, we assume a subtle difference in the cross-talk between the nucleotide binding domain and the transmembrane domain, which is caused by the type of purine base.
(A) NTP dependent peptide transport was performed with 9-mer^FL peptide (100 µM). (B) NTP hydrolysis was analyzed in the presence of 9-mer peptide (100 µM) by radioactive based assay. Experiments were performed in triplicates, error bars indicate SD.

The target of series [2] is T1, TAPL. The series is described as follows: Peptide transport into TAPL proteoliposomes. The settings on record: 15 min, 37 °C. Format: biochemical. Here is the method: (A) Proteoliposomes (0.5 mg/ml lipids) were incubated with 10 µM of 9-mer^FL peptide and 3 mM ATP, 3 mM ADP, without any nucleotide (−) or with 3 mM ATP in the presence of ortho-vanadate (Vi, 500 µM). […] […] Transport was performed in triplicates with error bars indicating SD.
CoreTAPL fused C-terminally to mVenus was produced in P. pastoris by large scale expression in a 7.5 liter Labfors4 reactor (Infors HT, Einsbach, Germany) by fed batch method and cell pellets were stored at −80 °C[14],[44]. Core[…] fused C-terminally to mVenus was produced in P. pastoris in Erlenmeyer flasks. TmrAB from T. thermophilus was expressed in Escherichia coli and cell pellets were stored at −80 °C[30]. CoreTAPL and TmrAB were purified and reconstituted (40:1 (wt/wt) lipid to protein) as described into unilamellar liposomes composed of E. coli polar lipids and DOPC (7:3 (wt/wt); Avanti Polar Lipids), which were ultrasonicated, five times frozen and thawed and extruded through a 400 nm polycarbonate filter (Avestin, Mannheim, Germany)[13],[14],[30]. Proteoliposomes were snap frozen in liquid nitrogen and stored at −80 °C. […] Concentration of coreTAPL and core[…] was determined by specific absorption of mVenus (ε515 = 45.950 M^−1cm^−1). For calculation of TmrAB concentration ε280 = 159.630 M^−1cm^−1 was applied.

For series [3], the target named is T1, TAPL. Nature of the series: NTP hydrolysis by TAPL, malachite green based assay. Type of series: biochemical. The settings on record: 15 min, 37 °C. Here is the method: Kinetics were recorded under steady-state conditions in which peptide accumulation in proteoliposomes is far below saturation (Figs S2,S5).
ATP hydrolysis was determined by malachite green based assay in the absence or presence of 100 µM peptide (filled bar) or ortho-vanadate (500 µM, white bar) (A) or with increasing peptide concentrations (B). Hydrolysis rates of 16-mer and 18-mer peptide were fitted with equation 6. IC50 values, Hill coefficients and kcat are depicted in Table 1. […] All experiments were performed in triplicates, error bars indicate SD.
The reaction was started by the addition of NTP. Background and autohydrolysis were determined with 500 µM ortho-vanadate or in the absence of protein, respectively. Hydrolysis was stopped by the addition of 20 mM H2SO4, supplemented with malachite green solution (3 mM malachite green, 0.2% (v/v) Tween 20, 1.5% (w/v) ammoniummolybdate) and absorption was detected after 10 min incubation at room temperature at 620 nm using a microplate reader (CLARIOstar, BMG LABTECH). IC50 values for peptides were determined by6 v=vmin+vmax−vmin/1+10^(LOGIC50−[I])⋅n where v represents the peptide inhibitor [I] dependent hydrolysis rate, vmax the maximal hydrolysis rate in the absence of peptide, vmin the minimal hydrolysis rate at saturating peptide concentrations and n the Hill slope. IC50 represents the half maximal inhibitory peptide concentration.

For series [4], the system named is Nc1nc2c(ncn2[C@@H]2O[C@H](COP(=O)(O)OP(=O)(O)OP(=O)(O)O)[C@@H](O)[C@H]2O)c(=O)[nH]1. The series is described as follows: purified protein, by the assay type. The settings on record: other: 68 °C, 10 min, 9-mer^FL peptide (30 µM), triplicates, SD.
Series [5] concerns Nc1ncnc2c1ncn2[C@@H]1O[C@H](COP(=O)(O)OP(=O)(O)OP(=O)(O)O)[C@@H](O)[C@H]1O. Nature of the series: purified protein, by the assay type. The settings on record: other: 68 °C, 10 min, 9-mer^FL peptide (30 µM), triplicates, SD.
A further series deals with Pdr5. The settings on record: cited from earlier work. The source says: Both nucleotides show the same Km and kcat values in respect of NTP hydrolysis. […] NTP dependent transport was found also for other ABC transporters. […] The full-length ABC transport Pdr5 from yeast hydrolyzes GTP and even UTP, but ...

Broadly, the Km is the substrate concentration at which the rate is half of its maximum. In general, kcat refers to the number of substrate molecules converted per active site and unit of time at saturation.

Ends that are not written are not given here.

`[O]=[V]([O-])([O-])[O-]` [ortho-vanadate]: on TAPL [1] (ortho-vanadate 500 µM, 3 mM GTP, 10 µM 9-mer^FL, 15 min), the “inhibition of GTP dependent peptide transport (in words)” value is given as “inhibited”. Further, the “inhibition of ATP dependent peptide translocation (in words)” value on TAPL [2] (ortho-vanadate 500 µM, 3 mM ATP, 10 µM 9-mer^FL) is on record as “specifically inhibited”. On TAPL [3] (3 mM ATP, malachite green, peptide up to 100 µM or ortho-vanadate 500 µM), the “effect on basal ATP hydrolysis (in words)” value is given as “blocked”. Besides, the “effect on GTP hydrolysis (in words)” value at TAPL [3] (3 mM GTP, malachite green, 9-mer peptide 100 µM or ortho-vanadate 500 µM) is listed as “inhibited”.
As for TmrAB (Thermus thermophilus HB27), the Km was 617 ± 144 µM in series [4] (radioactive assay), 391 ± 136 µM in series [4] (pH 7.5), 661 ± 176 µM in series [5] (radioactive assay) and 782 ± 213 µM in series [5] (pH 7.5). The kcat was 2.47 ± 0.2 s⁻¹ in series [4] (radioactive assay), 0.0167 ± 0.00167 s⁻¹ in series [4] (pH 7.5), 2.25 ± 0.217 s⁻¹ in series [5] (radioactive assay) and 0.105 ± 0.01 s⁻¹ in series [5] (pH 7.5).
On to `Nc1ncnc2c1ncn2[C@@H]1O[C@H](COP(=O)(O)OP(=O)(O)OP(=O)(O)O)[C@@H](O)[C@H]1O` [ATP], for which, in the series with Pdr5 (GTP, UTP, ATP), the “nucleotide hydrolysis by Pdr5 (in words)” value is given as “highest efficiency”. For the same compound, the “fold turnover number of peptide transport, ATP over GTP” value at TAPL [1] (ATP vs GTP, 9-mer peptide (100 µM)) is listed as 6 fold.
For “RRYC^FluoresceinKSTEL [9-mer^FL, fluorescein labeled 9-mer peptide]”, the Km at TAPL [2] (read-out: Km(Pep) of 9-mer transport with GTP, 3 mM GTP, proteoliposomes, triplicates, SD) stood at 4.4 ± 0.8 µM.
As to RRYQKSTELRRYQKSTEL [18-mer], the “reduction of ATP hydrolysis” value on TAPL [3] (100 µM peptide, 3 mM ATP, vs absence of peptide) came to 50%.
`Clc1ccccc1C(c1ccccc1)(c1ccccc1)n1ccnc1` [clotrimazole]: in the series with Pdr5 (ATP hydrolysis), the “effect on Pdr5 ATPase activity (in words)” value is reported as “inhibited”. The “effect on Pdr5 GTP and UTP hydrolysis (in words)” value in the series with Pdr5 (GTP and UTP hydrolysis) is listed as “not affected”.

These data come from article PMC6695453, “Peptide translocation by the lysosomal ABC transporter TAPL is regulated by coupling efficiency and activation energy” (Scientific Reports, 2019).
